The target in series [1] is T1, human adenosine A2A receptor (Homo sapiens, UniProt P29274).
T1 construct: expressed in transfected cells; host or cells: CHO cells, semliki forest virus expression system; membrane preparation
In words: [3H]-SCH-58261 binding assay, human adenosine A2A receptor (CHO cell membranes, SPA). To be noted: recombinant human A2A receptor in CHO membranes; [3H]-SCH-58261 1 nM; Ki by Cheng-Prussoff equation; read-out: hA2 (pKi) (converted). The protocol:
Human Adenosine A2A Receptor
The human adenosine A2A receptor was recombinantly expressed in Chinese hamster ovary (CHO) cells using the semliki forest virus expression system. Cells were harvested, washed twice by centrifugation, homogenized and again washed by centrifugation. The final washed membrane pellet was suspended in a Tris (50 mM) buffer containing 120 mM NaCl, 5 mM KCl, 2 mM CaCl2 and 10 mM MgCl2 (pH 7.4) (buffer A). The [^3H]-SCH-58261 (Dionisotti et al., 1997, Br J Pharmacol 121, 353; 1nM) binding assay was carried out in 96-well plates in the presence of 2.5 μg of membrane protein, 0.5 mg of Ysi-poly-l-lysine SPA beads and 0.1 U adenosine deaminase in a final volume of 200 μl of buffer A. Non-specific binding was defined using xanthine amine congener (XAC; 2 μM). Compounds were tested at 10 concentrations from 10 μM-0.3 nM. All assays were conducted in duplicate and repeated at least two times. Assay plates were incubated for 1 hour at room temperature before centrifugation and then bound ligand determined using a Packard Topcount scintillation counter. IC50 values were calculated using a non-linear curve fitting program and Ki values calculated using the Cheng-Prussoff equation.

T1 sequence (P29274 whole entry): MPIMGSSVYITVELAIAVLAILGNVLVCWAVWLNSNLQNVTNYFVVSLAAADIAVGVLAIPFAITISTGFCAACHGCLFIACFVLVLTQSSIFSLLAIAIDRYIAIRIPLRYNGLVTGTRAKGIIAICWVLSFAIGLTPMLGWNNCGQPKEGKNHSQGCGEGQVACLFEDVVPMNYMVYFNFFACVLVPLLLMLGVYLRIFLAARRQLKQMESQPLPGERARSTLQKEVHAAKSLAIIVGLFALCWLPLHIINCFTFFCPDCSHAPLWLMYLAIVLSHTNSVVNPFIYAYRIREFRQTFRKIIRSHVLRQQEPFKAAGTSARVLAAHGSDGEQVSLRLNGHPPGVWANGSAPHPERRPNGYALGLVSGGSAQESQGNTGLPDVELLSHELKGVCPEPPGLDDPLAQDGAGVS

Broadly, the melting point is the temperature, or range, at which the solid turns liquid. On to `COc1ccc(N2CCOCC2)c2sc(NC(=O)N(C)C3CCC(CO)C3)nc12` (racemic) [Example 5, (rac),(cis)-1-(3-Hydroxymethyl-cyclopentyl)-3-(4-methoxy-7-morpholin-4-yl-benzothiazol-2-yl)-1-methyl-urea], for which the melting point lay in the range of 115 to 118 °C. In series [1], the Ki was 3.98 nM.

`COc1ccc(N2CCOCC2)c2sc(NC(=O)N(C)C3CC4CCC3C4)nc12` (racemic) [Example 6, 1-(endo)-(rac)-Bicyclo[2.2.1]hept-2-yl-3-(4-methoxy-7-morpholin-4-yl-benzothiazol-2-yl)-1-methyl-urea] yielded a melting point of 199 to 202 °C. In addition, the Ki in series [1] is 7.94 nM.

For the compound `COc1ccc(N2CCOCC2)c2sc(NC(=O)N(C)C3CC4CCC3O4)nc12` (racemic) [Example 9, (rac)-(endo)-3-(4-Methoxy-7-morpholin-4-yl-benzothiazol-2-yl)-1-methyl-1-(7-oxa-bicyclo[2.2.1]hept-2-yl)-urea], the melting point was in the range of 191 to 193 °C. Also, the Ki in series [1] was 12.6 nM.

As to `COc1ccc(N2CCOCC2)c2sc(NC(=O)N(C)C3CC4CC3CC4O)nc12` (racemic) [Example 10, (rac)-1-(5-exo-Hydroxy-bicyclo[2.2.1]hept-2-exo-yl)-3-(4-methoxy-7-morpholin-4-yl-benzothiazol-2-yl)-1-methyl-urea], the melting point was 189 °C. Also, in series [1], the Ki was 7.94 nM.

With `COc1ccc(N2CCOCC2)c2sc(NC(=O)N(C)C3CC4CCC3O4)nc12` (single isomer, unassigned) [Example 7, (exo)-(+)-3-(4-Methoxy-7-morpholin-4-yl-benzothiazol-2-yl)-1-methyl-1-(7-oxa-bicyclo[2.2.1]hept-2-yl)-urea], the melting point was 202 to 204 °C. Besides, in series [1], the Ki was 3.16 nM.

In turn, `COc1ccc(N2CCOCC2)c2sc(NC(=O)N(C)C3CC4CCC3O4)nc12` (single isomer, unassigned) [Example 8, (exo)-(−)-3-(4-Methoxy-7-morpholin-4-yl-benzothiazol-2-yl)-1-methyl-1-(7-oxa-bicyclo[2.2.1]hept-2-yl)-urea] returned a melting point of 202 to 203 °C. Also, the Ki in series [1] was 10 nM.

As for `COc1ccc(N2CCOCC2)c2sc(NC(=O)N(C)C3CCC(C(F)(F)F)CC3)nc12` (stereo not drawn) [Example 1, 3-(4-Methoxy-7-morpholin-4-yl-benzothiazol-2-yl)-1-methyl-1-(4-trifluoromethyl-cyclohexyl)-urea], the melting point is 157 to 167 °C. For the same compound, in series [1], the Ki was 20 nM.

The compound `COc1ccc(N2CCOCC2)c2sc(NC(=O)N(C)[C@H]3CC[C@H](C)CC3)nc12` [Example 2, (trans)-3-(4-Methoxy-7-morpholin-4-yl-benzothiazol-2-yl)-1-methyl-1-(4-methyl-cyclohexyl)-urea] displayed a melting point of 171 to 173 °C. The Ki in series [1] was 15.8 nM.

Regarding `COc1ccc(N2CCOCC2)c2sc(NC(=O)N(C)[C@H]3CC[C@H](CO)CC3)nc12` [Example 3, (trans)-1-(4-Hydroxymethyl-cyclohexyl)-3-(4-methoxy-7-morpholin-4-yl-benzothiazol-2-yl)-1-methyl-urea], the melting point is 190 °C (dec.). Also, in series [1], the Ki was 15.8 nM.

`COC[C@H]1CC[C@H](N(C)C(=O)Nc2nc3c(OC)ccc(N4CCOCC4)c3s2)CC1` [Example 4, (trans)-1-(4-Methoxymethyl-cyclohexyl)-3-(4-methoxy-7-morpholin-4-yl-benzothiazol-2-yl)-1-methyl-urea] returned a melting point of 141 to 143 °C. For the same compound, the Ki in series [1] is 20 nM.

In turn, `COc1ccc(N2CCOCC2)c2sc(NC(=O)N(C)C34CC5CC(CC(C5)C3)C4)nc12` [Example 12, 1-Adamantan-1-yl-3-(4-methoxy-7-morpholin-4-yl-benzothiazol-2-yl)-1-methyl-urea] registered a melting point of 165 to 176 °C. Further, in series [1], the Ki was 50.1 nM.

Compound `COc1ccc(N2CCOCC2)c2sc(NC(=O)N3CC4CCC(C3)O4)nc12` [Example 13, 8-Oxa-3-aza-bicyclo[3.2.1]octane-3-carboxylic acid (4-methoxy-7-morpholin-4-yl-benzothiazol-2-yl)-amide] displayed a melting point of 229 to 231 °C. Also, the Ki in series [1] was 10 nM.

These data come from patent US7285548B2, “Urea substituted benzothiazoles” (Hoffmann-La Roche Inc., priority 2003, dated 2007).
